Numbering of substitutions follows the chain as printed. Several values for one entry are separate records, joined by “and”; a condition that tells them apart may be missing. Identical values can stand only once.
Columns and labels:
Experiment in all cases: Cell assay (liposome/EV binding, flow cytometry)
Format in all cases: cell-based
[1] = molecular target: T1, Siglec-5 R119A CHO cells (Homo sapiens, UniProt O15389, R119A); settings: Sig-5 R119A†; † after treatment of cells with neuraminidase; 3 mol% ganglioside liposomes; replicates
T1 construct: expressed in transfected cells
T1 sequence (O15389 17-551 R119A): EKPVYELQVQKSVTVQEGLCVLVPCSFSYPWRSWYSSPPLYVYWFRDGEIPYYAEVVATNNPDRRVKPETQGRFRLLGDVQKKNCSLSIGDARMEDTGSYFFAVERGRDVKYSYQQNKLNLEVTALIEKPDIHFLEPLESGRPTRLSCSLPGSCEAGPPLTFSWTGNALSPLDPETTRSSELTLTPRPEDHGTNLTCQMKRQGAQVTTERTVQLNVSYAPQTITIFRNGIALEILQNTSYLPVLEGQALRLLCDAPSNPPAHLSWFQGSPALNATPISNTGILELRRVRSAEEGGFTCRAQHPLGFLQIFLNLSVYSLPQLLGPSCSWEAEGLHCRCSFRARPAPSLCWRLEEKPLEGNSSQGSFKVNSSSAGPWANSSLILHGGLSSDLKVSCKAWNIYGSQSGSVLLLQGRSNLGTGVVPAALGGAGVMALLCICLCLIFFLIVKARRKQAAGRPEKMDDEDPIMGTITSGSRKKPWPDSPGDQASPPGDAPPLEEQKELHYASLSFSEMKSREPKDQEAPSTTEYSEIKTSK
Description: (§1) Stock lipids (DSPC, Cholesterol, PEG45–DSPE) solutions were prepared by solvating the lipids in chloroform. An appropriate volume of each lipid solution was transferred to a glass test tube to reach the desired mol% of the component. The chloroform was then removed under N2 gas to yield a lipid thin film. Once dry, 100 µL of DMSO was added to the lipid-containing test tube and then the functional lipids (ganglioside, AF647–PEG45–DSPE, Siglec ligand–PEG45–DSPE, pHrodo–PEG45–DSPE, NGL) was added from their respect DMSO stock solution. The lipid mixture was then stored at −80 °C until completely frozen at which point excess DMSO was removed via lyophilization. Dry lipids were then stored at −80 °C until they were extruded. Lipid suppliers can be found in Supplementary Table 4.
(§2) Dry lipids were then hydrated in 1 mL of PBS. The lipids were then sonicated in a bath sonicator in a cycle of 1 min on, 5 min off for a total of five cycles. Liposomes were then extruded using an Avanti mini extruder first using an 800 nm filter and then a 100 nm filter yielding liposomes that were 130 ± 35 nm (Supplementary Table 5) measured using a Malvern Panalytical Zetasizer Nano S. Liposomes were stored at 4 °C.
(§3) 200,000 cells/well were plated into a 96-well U-bottom microplate and centrifuged at 300 × g for 5 min. The cells were then resuspended in 50 µL of 50 µM liposome/50 µg/mL (protein concentration) of EV solution in DMEM F12 5% FBS and incubated at 37 °C for 30 min. Excess liposomes were then removed via centrifuged at 300 × g for 5 min followed by washing the cells with FACS solution. The cells were then resuspended in (1:250 V/V) anti-Siglec-flow buffer (1% V/V FBS, 500 µM, EDTA Hank’s Balanced Salt Solution pH 7.4), solution and left to rest on ice for 30 min. The cells were then centrifuged again at 300 × g for 5 min and the cells were resuspended in FACS buffer solution and were then ready for analysis by flow cytometry. Information regarding antibody clone, catalog number supplier, label isotype, and dilution can be found in Supplementary Table 6. The Siglec-positive cells were gated on for liposome-binding analysis (Supplementary Fig. 1b).
(§4) Flow cytometry measurements were collected on a 5-laser Fortessa X-20 (BD Bioscience). All the resulting data were analyzed using FlowJo (10.5.3) software (BD Biosciences).
(§5) Cells were harvested and resuspended in complete media with either Neuraminidase A or S. The cells were then placed in a 37 °C shaking incubator for 1 h. The cells were then washed with complete media and then the liposome binding assay was performed as described above.

[2] = molecular target: T2, Siglec-9 WT CHO cells (Homo sapiens, UniProt Q9Y336); settings: for log10(MFI AF647) of GLL relative to log10(MFI AF647) of the same GLL against UT CHO cells (Fig. 2a): Sig-9 WT†, † after treatment of cells with neuraminidase, 3 mol% ganglioside liposomes, replicates
T2 construct: expressed in transfected cells
T2 sequence (Q9Y336 18-463): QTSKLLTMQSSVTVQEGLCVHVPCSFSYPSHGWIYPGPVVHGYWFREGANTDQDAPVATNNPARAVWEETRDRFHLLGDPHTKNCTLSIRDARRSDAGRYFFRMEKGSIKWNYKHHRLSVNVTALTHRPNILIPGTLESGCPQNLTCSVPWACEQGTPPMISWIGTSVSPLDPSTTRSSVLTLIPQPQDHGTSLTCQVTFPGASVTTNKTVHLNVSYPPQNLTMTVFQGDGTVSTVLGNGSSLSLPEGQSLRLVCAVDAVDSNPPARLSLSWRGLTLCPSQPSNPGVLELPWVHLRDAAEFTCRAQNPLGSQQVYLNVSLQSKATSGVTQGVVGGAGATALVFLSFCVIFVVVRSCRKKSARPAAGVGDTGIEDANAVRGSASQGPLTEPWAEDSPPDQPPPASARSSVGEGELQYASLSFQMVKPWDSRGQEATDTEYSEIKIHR
Description: as §1, §2, §3, §4, §5

[3] = molecular target: T3, Siglec-7 R124A CHO cells (Homo sapiens, UniProt Q9Y286, R124A); settings: Sig-7 R124A†; † after treatment of cells with neuraminidase; 3 mol% ganglioside liposomes; replicates
T3 construct: expressed in transfected cells
T3 sequence (Q9Y286 19-467 R124A): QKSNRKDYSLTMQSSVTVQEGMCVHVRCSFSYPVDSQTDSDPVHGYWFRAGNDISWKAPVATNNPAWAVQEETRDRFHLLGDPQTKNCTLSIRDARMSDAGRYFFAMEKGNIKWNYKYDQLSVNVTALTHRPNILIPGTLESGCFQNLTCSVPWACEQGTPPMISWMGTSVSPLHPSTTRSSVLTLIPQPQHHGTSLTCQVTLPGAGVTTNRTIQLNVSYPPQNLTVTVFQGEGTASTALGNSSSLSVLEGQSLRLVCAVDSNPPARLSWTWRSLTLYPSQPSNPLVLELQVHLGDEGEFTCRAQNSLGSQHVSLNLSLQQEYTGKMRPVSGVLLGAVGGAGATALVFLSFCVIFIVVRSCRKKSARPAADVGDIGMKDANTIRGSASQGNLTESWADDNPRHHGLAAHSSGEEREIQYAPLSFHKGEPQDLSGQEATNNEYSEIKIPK
Description: as §1, §2, §3, §4, §5

[4] = molecular target: T4, Siglec-5 WT CHO cells (Homo sapiens, UniProt O15389); settings: for log10(MFI AF647) of GLL relative to log10(MFI AF647) of the same GLL against UT CHO cells (Fig. 2a): Sig-5 WT†, † after treatment of cells with neuraminidase, 3 mol% ganglioside liposomes, replicates; for GLL binding to Siglec-5 (in words): cell assay, optimized liposomal formulation
T4 construct: expressed in transfected cells
T4 sequence (O15389 17-551): T1 sequence (O15389 17-551 R119A) with A103R
Description: as §1, §2, §3, §4, §5

Substance | log10(MFI AF647) of GLL relative to log10(MFI AF647) of the same GLL against UT CHO cells (Fig. 2a) [1] | log10(MFI AF647) of GLL relative to log10(MFI AF647) of the same GLL against UT CHO cells (Fig. 2a) [2] | log10(MFI AF647) of GLL relative to log10(MFI AF647) of the same GLL against UT CHO cells (Fig. 2a) [3] | log10(MFI AF647) of GLL relative to log10(MFI AF647) of the same GLL against UT CHO cells (Fig. 2a) [4] | GLL binding to Siglec-5 (in words) [4] | GLL binding to Siglec-9 (in words) ([2]; cell assay, optimized liposomal formulation)
GD1a | -0.25 and -0.02 and -0.03 and 0.01 | 0.29 (2×) and 0.32 | -0.2 and -0.15 and -0.24 | 0.3 and 0.33 and 0.29 |  | 
GD1b | 0.17 and -0.03 and -0.02 and 0.04 | 0.27 (2×) and 0.29 | -0.23 (2×) and -0.27 | 0.26 and 0.29 and 0.23 | novel interactions were observed | 
GD3 | -0.21 (2×) and -0.15 (2×) | 0.22 and 0.21 and 0.23 | -0.08 and -0.02 and -0.1 | 0.28 and 0.26 and 0.19 |  | 
GM1 | -0.32 and -0.33 and -0.29 and -0.28 | 0.3 and 0.31 (2×) | -0.08 and -0.05 and -0.01 | 0.35 (2×) and 0.26 | novel interactions were observed | 
GM2 | -0.1 and -0.09 (2×) and -0.11 | 0.28 and 0.29 and 0.26 | -0.25 and -0.22 and -0.35 | 0.12 and 0.11 and 0.15 |  | novel interactions were observed
GM3 | -0.22 (2×) and -0.21 and -0.24 | -0.03 and -0.01 (2×) | -0.45 and -0.31 and -0.25 | -0.05 (2×) and -0.08 |  | 
GM4 | -0.2 (3×) and -0.21 | 0.19 (2×) and 0.21 | -0.35 and -0.25 and -0.4 | 0.08 (2×) and 0.05 |  | 
GQ1b | -0.2 and -0.19 and -0.12 and -0.08 | 0.2 and 0.23 and 0.25 | 0.01 and -0.05 and -0.03 | 0.86 (2×) and 0.94 |  | 
GT1b | -0.05 and -0.03 and 0.02 and 0.1 | 0.55 and 0.46 and 0.54 | -0.17 and -0.19 and -0.09 | 0.58 and 0.64 and 0.55 |  | 

— PMC10122656, “Siglec-6 mediates the uptake of extracellular vesicles through a noncanonical glycolipid binding pocket” (Nature Communications, 2023)
